Laboratory results taken from PMC5975062 (Alzheimer's & Dementia : Translational Research & Clinical …, 2015).
Entries after “also recorded” stand apart in the source; their conditions may differ.

Assays:
QC activity in CSF = QC activity in CSF (Homo sapiens, UniProt Q16769); conditions: after single and multiple doses
QC activity in serum = QC activity in serum (Homo sapiens, UniProt Q16769); conditions: after single and multiple doses
[1] = Phase 1 CSF pharmacokinetics; assay type: in vivo, human; conditions: for concentration at 12 h: Min (C 12 h)
[2] = Phase 1 plasma pharmacokinetics after single and multiple oral doses; assay type: in vivo, human; conditions: for AUC(0-t) / half-life / Tmax: human, plasma, oral; for AUC(0-t): plasma AUC0–12 h
[3] = 50 mg bid solution, fasted, nonelderly, day 11, geo mean (CV%)

QC activity in CSF, sequence (Q16769 29-361): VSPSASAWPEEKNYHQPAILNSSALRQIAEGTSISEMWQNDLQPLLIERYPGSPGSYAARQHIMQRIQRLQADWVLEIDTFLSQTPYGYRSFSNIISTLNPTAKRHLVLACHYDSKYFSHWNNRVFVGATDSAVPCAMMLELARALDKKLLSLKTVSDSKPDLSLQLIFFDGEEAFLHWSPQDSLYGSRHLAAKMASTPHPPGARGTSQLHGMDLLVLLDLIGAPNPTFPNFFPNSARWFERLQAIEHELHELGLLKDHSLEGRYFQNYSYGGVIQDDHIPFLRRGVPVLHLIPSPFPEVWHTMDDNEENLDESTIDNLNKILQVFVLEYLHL
QC activity in serum, sequence (Q16769 29-361): as above

## CCCOc1ccc([C@H]2CNC(=O)N2c2ccc3[nH]cnc3c2)cc1 [PQ912]
QC activity in CSF
  QC activity in CSF: inhibited in a dose-related manner; also recorded: decreased in a dose-related manner
QC activity in serum
  QC activity in serum: inhibited in a dose-related manner; also recorded: decreased in a dose-related manner
[1]; 20 mg bid solution, fasted, nonelderly, day 11, estimated as plasma AUC × 0.05
  CSF AUC(0–12 h): 6 ng·h/mL
[1]; 20 mg bid solution, fasted, nonelderly, day 11, estimated, mean × 1.6
  CSF concentration, Max (C 3 h): 0.8 ng/mL
[1]; [3]
  CSF AUC(0–12 h): 17.3 (34.8) ng.h/mL
  CSF concentration, Max (C 3 h): 2.32 (34.5) ng/mL
[1]; 100 mg bid solution, fed, nonelderly, day 11, geo mean (CV%)
  CSF AUC(0–12 h): 44.7 (27.2) ng.h/mL
[1]; 200 mg bid capsule, fasted, elderly, day 7, estimated as plasma AUC × 0.05
  CSF AUC(0–12 h): 195 ng·h/mL
[1]; 200 mg bid capsule, fasted, elderly, day 7, estimated, mean × 1.6
  CSF concentration, Max (C 3 h): 25.9 ng/mL
[1]; 200 mg bid solution, fasted, nonelderly, day 11, estimated as plasma AUC × 0.05
  CSF AUC(0–12 h): 91.7 ng·h/mL
[1]; 300 mg bid capsule, fasted, elderly, day 7, estimated, mean × 1.6
  CSF concentration, Max (C 3 h): 37.7 ng/mL
[1]; 300 mg bid capsule, fasted, elderly, day 7, geo mean (CV%)
  CSF AUC(0–12 h): 275 (40.7) ng.h/mL
[1]; 400 mg bid capsule, fasted, nonelderly, day 11, geo mean (CV%)
  CSF AUC(0–12 h): 236 (25.0) ng.h/mL
[1]; 500 mg bid capsule, fed, nonelderly, day 11, estimated, mean × 1.6
  CSF concentration, Max (C 3 h): 62.0 ng/mL
[1]; 500 mg bid tablet, fasted, elderly, day 11, estimated, mean × 1.6
  CSF concentration, Max (C 3 h): 79.0 ng/mL
[1]; 500 mg bid tablet, fasted, elderly, day 11, geo mean (CV%)
  CSF AUC(0–12 h): 530 (36.6) ng.h/mL
[1]; 800 mg bid tablet, fasted, elderly, day 11, estimated as plasma AUC × 0.05
  CSF AUC(0–12 h): 1230 ng·h/mL
[1]; 800 mg bid tablet, fasted, elderly, day 11, estimated, mean × 1.6
  CSF concentration, Max (C 3 h): 163.7 ng/mL
[1]; human, CSF, oral, 100 mg, CSF concentration, Max (C 3 h), 100 mg bid solution, fed, nonelderly, day 11, geo mean (CV%)
  concentration at 3 h: 6.02 ng/mL
[1]; human, CSF, oral, 100 mg, CSF concentration, 100 mg bid solution, fed, nonelderly, day 11, geo mean (CV%)
  concentration at 12 h: 1.92 ng/mL
[1]; human, CSF, oral, 100 mg, CSF t1/2, 100 mg bid solution, fed, nonelderly, day 11, geo mean (CV%)
  half-life: 6.38 h
[1]; human, CSF, oral, 200 mg, CSF concentration, 200 mg bid capsule, fasted, elderly, day 7, estimated, mean × 0.53
  concentration at 12 h: 8.6 ng/mL
[1]; human, CSF, oral, 500 mg, CSF concentration, 500 mg bid capsule, fed, nonelderly, day 11, estimated, mean × 0.53
  concentration at 12 h: 20.5 ng/mL
[1]; repeated bid dosing ≥50 mg
  CSF trough lower than peak levels: approximately threefold lower
[1]; single oral solution, CSF sampling 1, 1.5 and 3 hours
  time of highest concentrations in the CSF: 3 h
[2]; 100 mg, 100 mg bid solution, fed, nonelderly, day 11, geo mean (CV%)
  AUC(0-t): 969 ng·h/mL
[2]; 100 mg, plasma t1/2 (apparent terminal), 100 mg bid solution, fed, nonelderly, day 11, geo mean (CV%)
  half-life: 3.46 h
[2]; 100 mg, plasma t1/2,eff (2–12 h postdose), 100 mg bid solution, fed, nonelderly, day 11, geo mean (CV%)
  half-life: 2.44 h
[2]; 100 mg, plasma tmax, 100 mg bid solution, fed, nonelderly, day 11, median (min–max)
  Tmax: 0.75 h
[2]; 200 mg, 200 mg bid capsule, fasted, elderly, day 7, geo mean (CV%)
  AUC(0-t): 3890 ng·h/mL
[2]; 200 mg, plasma t1/2 (apparent terminal), 200 mg bid capsule, fasted, elderly, day 7, geo mean (CV%)
  half-life: 7.55 h
[2]; 200 mg, plasma t1/2,eff (2–12 h postdose), 200 mg bid capsule, fasted, elderly, day 7, geo mean (CV%)
  half-life: 3.08 h
[2]; 200 mg, plasma tmax, 200 mg bid capsule, fasted, elderly, day 7, median (min–max)
  Tmax: 1 h
[2]; 500 mg, 500 mg bid capsule, fed, nonelderly, day 11, geo mean (CV%)
  AUC(0-t): 9300 ng·h/mL
[2]; 500 mg, plasma t1/2 (apparent terminal), 500 mg bid capsule, fed, nonelderly, day 11, geo mean (CV%)
  half-life: 6.82 h
[2]; 500 mg, plasma t1/2,eff (2–12 h postdose), 500 mg bid capsule, fed, nonelderly, day 11, geo mean (CV%)
  half-life: 3.01 h
[2]; 500 mg, plasma tmax, 500 mg bid capsule, fed, nonelderly, day 11, median (min–max)
  Tmax: 3 h
[2]; mean plasma tmax, single 10–400 mg solution, fasted
  Tmax: 0.5 h
[2]; plasma t1/2,eff, after bid doses
  half-life: 2 to 3 h
[2]; plasma tmax, generally observed, all formulations and doses
  Tmax: 0.5 to 1.5 h
[2]; plasma tmax, repeated dosing, compared with CSF
  Tmax: 0.5 to 1 h
[2]; terminal plasma t1/2, single doses, across dose range
  half-life: 2 to 8 h
[2]; multiple bid dosing, morning trough plasma concentrations
  time to steady-state: ≤ 2 days
[2]; repeated bid dosing ≥50 mg, steady state
  plasma trough (12 hours postdose) lower than peak levels: up to 61 fold
[2]; single doses 200–1800 mg
  increase in AUC with ninefold increase in dose: 24 fold
